Assays:
[1] = system: SPX1 phosphate starvation biomarker; experiment: Chemical activity assessment with Arabidopsis pSPX1::GUS reporter line (GUS stained area); format: in vivo, Arabidopsis thaliana; details: low phosphate, 50 μM, 7 days after germination; compare with low phosphate controls of same plate (Table 5 c3)
Protocol: (§1) All Arabidopsis plant experiments were performed using the Arabidopsis thaliana Columbia-0 background. The Arabidopsis pSPX1::GUS line is described in the Plant Journal 2008, 54: 965-975. For rice, the cultivar Nipponbare was used. For maize, the cultivars DKC 2931 and B104 were used for regular pot experiments and sand-based pot experiments, respectively. For soybean, the cultivar Primus was used. […] The medium was solidified due to the addition of 0.6% Gelrite, unless stated otherwise. In case of vertical plates (root length and root hair measurements), the medium was supplied with 0.5% of sucrose and 1 μM (low phosphate, 1 μM KH2PO4, 9.9 mM KCl), 10 μM (low phosphate 10 μM KH2PO4, 9.9 mM KCl) or 1.25 mM KH2PO4 (high phosphate). Arabidopsis seeds were stratified for 2 days at 4° C. before germination. Seedlings were germinated in climate-controlled growth chambers at 22° C. under continuous light (100 μmol m^−2 s^−1). Husked rice seeds were germinated on wetted Whatman paper for 2 days at 37° C. and then transferred to Sterivent boxes or square Petri dishes with solid medium. Maize and soybean seeds were wetted 24 hours at room temperature prior to sowing in pots.
For the chemical activity assessment 3 to 8 seeds per well of Arabidopsis pSPX1::GUS line were sown in 96-well plates containing 150 μl of low phosphate modMS liquid medium containing 1% of sucrose. Compounds were added in 50 μM concentration, starting from a 5 mM stock of compounds solved in DMSO. Different chemical substances were separately added to different wells. Per plate, 16 control wells were used, 8 containing only the low phosphate medium and 1% DMSO, and 8 containing high phosphate medium and 1% DMSO. 7 days after germination, plates were scanned using a flatbed scanner (EPSON Expression 11000XL) and analyzed for leaf size. After scanning, the growth medium was replaced by GUS staining solution (see Plant Mol. Biol. Rep. 1994, 12: 37-42 for details) and incubated for 1.5 hours at 37° C. The plates were scanned a second time and analyzed for GUS signal area. Measurements of both leaf area and GUS signal area were conducted by filtering out and measure the green and blue signal, respectively using ImageJ software. If the green leaf area was 50% or less than the control, samples were omitted. Additionally, all results were visually screened for leaf size and GUS signal.

[2] = system: Maize; experiment: Maize growth experiment in pots with mixture of unfertilized potting soil and sand (leaf 5); format: in vivo
Protocol: For a subset of compounds, we performed a more extensive analysis on their root hair inducing effect in a dose-response experiment (Table 3). This confirms that the more simple structures 8.14 and 8.14.6 still retain the activity of compound 8. […] To validate this, we performed a maize growth experiment using compound 8 and the, based on the increase of total root hair length, stronger variant 8.14.6. The experiment was conducted in pots with a mixture of unfertilized potting soil and sand, and leaf 5 was measured after 29 days (Table 4).

[3] = system: Arabidopsis root hairs; experiment: Root hair number and length quantification; format: in vivo, Arabidopsis thaliana; details: Arabidopsis thaliana, read-out: Total root hair length per root (in % compared to the control)
Protocol: as §1
Roots were imaged using a stereomicroscope or a VHX-6000. Number and length of the root hairs parallel to the medium surface was determined at 4 to 6 mm above the root meristem. Root hair length was measured using the ImageJ software.

SMILES | GUS (SPX1) stained area normalized to the number of seeds [1] [pixels] | activity at 0.6 µM [3] [%] | activity at 1.25 µM [3] [%] | also measured
CC(C)(C)c1csc(NC(=O)CN2C(=O)COc3ccccc32)n1 [Compound 8.14.4] | 46 |  |  | 
O=C(CN1CC(C(=O)N2CCCCC2)Oc2ccccc21)N1CC=C(c2ccccc2)CC1 (centres unmarked) [Compound 8.14.1] | 22 |  |  | 
COc1ccc([N+](=O)[O-])cc1NCC(=O)N1CCCC1c1cccs1 (centres unmarked) [Compound 8.14.5] | 93 |  |  | 
CN(Cc1ccc(Br)s1)C(=O)CN1C(=O)CCOc2ccccc21 [Compound 8.14.2] | 39 |  |  | 
COc1ccc(C)cc1NCC(N)=O [Compound 8.14.6] | 2 | 231 | 592 | Growth-promoting effect on maize versus compound 8 ([2]; leaf 5 after 29 days): even a stronger growth-promoting effect; Leaf 5 ([2]; maize, pots with unfertilized potting soil and sand, after 29 days, control 38.1): 41.8 cm
Cc1ccc2c(c1)OC(C)CN2CC(N)=O (centres unmarked) [Compound 8.14] | 2 | 231 | 343 | activity at 2.5 µM ([3]; 2.5 μM): 493%; activity at 5 µM ([3]; 5 μM): 803%
